Results as given in US20160313301A1, “METHOD FOR PREDICTING ANTITUMOR EFFICACY OF HSP90 INHIBITOR IN CANCER TREATMENT” (NIPPON KAYAKU KABUSHIKI KAISHA, priority 2013, published 2016).
“Also recorded” adds a separate entry of the source.

Tests used:
Type in all cases: in vivo
[1] = tested on: human breast cancer cells MC-19-JCK; assay: Anti-tumor test in mice transplanted subcutaneously with tumor (MC-19-JCK); details: MC-19-JCK s.c. in mice; administered once at 40 mg/kg
Experimental: (§1) Human ovarian cancer cell lines OC-10-JCK, OC-11-JCK, and TOGY-18, and a human breast cancer cell line MC-19-JCK were obtained from Central Institute for Experimental Animals. Cryopreserved tumor pieces were thawed, and then OC-10-JCK, OC-11-JCK, and MC-19-JCK were transplanted subcutaneously to SCID mice, while TOGY-18 was transplanted subcutaneously to nude mice. After the tumors were grown, the tumors were removed and cut into tumor pieces. The tumor pieces were transplanted subcutaneously to SCID mice or nude mice with trocars. The tumors were maintained by repeated transplantation in the same manner as described above to prepare tumors to be transplanted. Human ovarian cancer cell lines ES-2, SK-OV-3, OV-90, and TOV-21G, and a human lung cancer cell line NCI-H1975 were obtained from American Type Culture Collection (ATCC). The SK-OV-3 and NCI-H1975 cell lines were grown in recommended culture media, of which about 1×10^7 cells were suspended into HBSS and then injected subcutaneously to SCID mice. After the cells formed tumors, the tumors were removed and cut into tumor pieces. The tumor pieces were transplanted subcutaneously to SCID mice with trocars. The tumors were maintained by repeated transplantation in the same manner as described above to prepare tumors to be transplanted. […]

[2] = tested on: human ovarian cancer cells OV-90; assay: Anti-tumor test in mice transplanted subcutaneously with tumor (OV-90); details: OV-90 s.c. in mice
Experimental: as §1

[3] = tested on: human ovarian cancer cells SHIN-3; assay: Anti-tumor test in mice transplanted subcutaneously with tumor (SHIN-3); details: SHIN-3 s.c. in mice
Experimental: as §1

[4] = tested on: human lung cancer cells NCI-H1975; assay: Anti-tumor test in mice transplanted subcutaneously with tumor (NCI-H1975); details: NCI-H1975 s.c. in mice; 40 mg/kg three times at 7 day intervals
Experimental: as §1

[5] = tested on: human ovarian cancer cells SK-OV-3; assay: Anti-tumor test in mice transplanted subcutaneously with tumor (SK-OV-3); details: SK-OV-3 s.c. in mice
Experimental: as §1

[6] = tested on: human ovarian cancer cells TOGY-18; assay: Anti-tumor test in mice transplanted subcutaneously with tumor (TOGY-18); details: TOGY-18 s.c. in mice; 40 mg/kg tail vein three times at 4 day intervals
Experimental: as §1

[7] = tested on: human ovarian cancer cells OC-11-JCK/CDDP; assay: Anti-tumor test in mice transplanted subcutaneously with tumor (OC-11-JCK/CDDP); details: OC-11-JCK/CDDP s.c. in mice; 40 mg/kg tail vein three times at 4 day intervals
Experimental: as §1

[8] = tested on: human ovarian cancer cells OC-11-JCK; assay: Anti-tumor test in mice transplanted subcutaneously with tumor (OC-11-JCK); details: OC-11-JCK s.c. in mice; 40 mg/kg tail vein three times at 4 day intervals
Experimental: as §1

[9] = tested on: human ovarian cancer cells 2008; assay: Anti-tumor test in mice transplanted subcutaneously with tumor (2008); details: 2008 s.c. in mice
Experimental: as §1

[10] = tested on: human ovarian cancer cells TOV-21G; assay: Anti-tumor test in mice transplanted subcutaneously with tumor (TOV-21G); details: TOV-21G s.c. in mice
Experimental: as §1

[11] = tested on: human ovarian cancer cells OC-11-JCK/PTX; assay: Anti-tumor test in mice transplanted subcutaneously with tumor (OC-11-JCK/PTX); details: OC-11-JCK/PTX s.c. in mice
Experimental: Human ovarian cancer cell lines OC-10-JCK, OC-11-JCK, and TOGY-18, and a human breast cancer cell line MC-19-JCK were obtained from Central Institute for Experimental Animals. Cryopreserved tumor pieces were thawed, and then OC-10-JCK, OC-11-JCK, and MC-19-JCK were transplanted subcutaneously to SCID mice, while TOGY-18 was transplanted subcutaneously to nude mice. After the tumors were grown, the tumors were removed and cut into tumor pieces. The tumor pieces were transplanted subcutaneously to SCID mice or nude mice with trocars. The tumors were maintained by repeated transplantation in the same manner as described above to prepare tumors to be transplanted. Human ovarian cancer cell lines ES-2, SK-OV-3, OV-90, and TOV-21G, and a human lung cancer cell line NCI-H1975 were obtained from American Type Culture Collection (ATCC). The SK-OV-3 and NCI-H1975 cell lines were grown in recommended culture media, of which about 1×10^7 cells were suspended into HBSS and then injected subcutaneously to SCID mice. After the cells formed tumors, the tumors were removed and cut into tumor pieces. The tumor pieces were transplanted subcutaneously to SCID mice with trocars. The tumors were maintained by repeated transplantation in the same manner as described above to prepare tumors to be transplanted. The OV-90 cell line was grown in a recommended culture medium, of which about 1×10^6 cells were suspended into HBSS and then injected subcutaneously to SCID mice. After the cells formed a tumor, the tumor was subjected to an anti-tumor test. The TOV-21G cell line was grown in a recommended culture medium, of which about 1×10^7 cells were suspended into HBSS and then injected subcutaneously to SCID mice. After the cells formed a tumor, the tumor was subjected to the anti-tumor test. The ES-2 cell line was grown in a recommended culture medium, suspended into HBSS, and then injected subcutaneously to nude mice. After the cells formed a tumor, the tumor was removed and cut into tumor pieces. The tumor pieces were transplanted subcutaneously to nude mice with a trocar. […]

[12] = tested on: human ovarian cancer cell line ES-2; assay: Anti-tumor test in mice transplanted subcutaneously with tumor (ES-2); details: ES-2 s.c. in mice
Experimental: as §1

[13] = 40 mg/kg tail vein three times at 4 day intervals

SMILES: CC(C)c1cc(-c2n[nH]c(=O)n2-c2ccc(CN3CCN(C)CC3)cc2)c(O)cc1O [A-1, 5-(2,4-dihydroxy-5-isopropyl-phenyl)-4-[4-(4-methyl-piperazin-1-ylmethyl)-phenyl]-2,4-dihydro-[1,2,4]triazol-3-one]
- T/C % (lowest value from the beginning to the 21st day of administration) [1]: 5.2%
- anti-tumor effect (in words) [2]: relatively highly effective
- T/C % (lowest value from the beginning to the 21st day of administration) [2, 13]: 30.4%
- anti-tumor effect (in words) [3]: hardly effective; also recorded: lowly effective
- T/C % (lowest value from the beginning to the 21st day of administration) [3, 13]: 78.1%
- T/C % (lowest value from the beginning to the 21st day of administration) [4]: 49.4%
- anti-tumor effect (in words) [5]: relatively highly effective
- T/C % (lowest value from the beginning to the 21st day of administration) [5, 13]: 3.0%
- T/C % (lowest value from the beginning to the 21st day of administration) [6]: 45.2%
- T/C % (lowest value from the beginning to the 21st day of administration) [7]: 46.4%
- T/C % (lowest value from the beginning to the 21st day of administration) [8]: 36.0%
- anti-tumor effect (in words) [9]: lowly effective
- T/C % (lowest value from the beginning to the 21st day of administration) [9, 13]: 51.7%
- anti-tumor effect (in words) [10]: relatively highly effective
- T/C % (lowest value from the beginning to the 21st day of administration) [10, 13]: 25.0%
- anti-tumor effect (in words) [11]: hardly effective; also recorded: lowly effective
- T/C % (lowest value from the beginning to the 21st day of administration) [11, 13]: 62.4%
- anti-tumor effect (in words) [12]: relatively highly effective
- T/C % (lowest value from the beginning to the 21st day of administration) [12, 13]: 25.6%
